Assay [1] concerns STAT1 (phosphorylated at Tyr701) in NCI-H1373 cells. Kind of assay: Phospho-STAT1 (Tyr701) LANCE Ultra TR-FRET Detection Assay. It is filed as cell-based. The conditions noted are these: Homo sapiens, 48 hours, induction of pSTAT1, normalized to 10 uM positive control and DMSO, 4-parameter fit, read-out: NH1373 pSTAT1 EC50. Put shortly: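 Endogenous STAT1 Tyr701 phosphorylation induced by compound was measured after seeding 30,000 cells/well onto compound-spotted plates and incubating 48 h at 37 °C, 5% CO2. Lysates were incubated with a sandwich antibody pair overnight at room temperature, and TR-FRET emission was read at 665 and 620 nm.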
(In general: TR-FRET usually uses a lanthanide donor and a delayed reading to cut background.)

In another assay the target is T1, PARP7 (Homo sapiens, UniProt Q7Z3E1).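 Also: MSD light signal quantifying PARP7 captured by a plate-immobilized probe, read after 1.5 h equilibration plus 1.5 h with SULFO-TAG anti-GST antibody at room temperature.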
T1 sequence (Q7Z3E1 1-657): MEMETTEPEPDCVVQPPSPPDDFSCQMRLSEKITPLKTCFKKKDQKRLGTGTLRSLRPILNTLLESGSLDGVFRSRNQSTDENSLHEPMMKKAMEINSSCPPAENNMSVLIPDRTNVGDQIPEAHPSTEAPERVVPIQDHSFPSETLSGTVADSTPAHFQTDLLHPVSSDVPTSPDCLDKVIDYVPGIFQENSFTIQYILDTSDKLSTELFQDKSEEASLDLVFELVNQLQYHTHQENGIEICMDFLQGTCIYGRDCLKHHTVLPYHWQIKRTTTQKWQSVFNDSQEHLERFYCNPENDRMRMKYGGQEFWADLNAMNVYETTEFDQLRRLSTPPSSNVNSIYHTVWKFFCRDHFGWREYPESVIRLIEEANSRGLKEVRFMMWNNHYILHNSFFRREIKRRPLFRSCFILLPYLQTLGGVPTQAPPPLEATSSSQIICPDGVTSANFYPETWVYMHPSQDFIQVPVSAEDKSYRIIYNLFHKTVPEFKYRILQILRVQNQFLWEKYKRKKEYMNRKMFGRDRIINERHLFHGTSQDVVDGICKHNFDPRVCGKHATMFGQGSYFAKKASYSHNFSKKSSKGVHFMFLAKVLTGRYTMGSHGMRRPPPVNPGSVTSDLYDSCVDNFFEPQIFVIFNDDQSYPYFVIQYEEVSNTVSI
Kind of assay: biochemical.

Structures are written as SMILES. Some results are limits rather than exact numbers.

Usually EC50 stands for the concentration that produces a half-maximal response. Usually IC50 stands for the concentration needed to halve the response being measured.

Procedure for PARP7: Probe Displacement Assay for PARP7 Displacement of a biotinylated probe (RBN011147; Wigle et al., Cell Chemical Biology, 2020, pp. 877-887) from the PARP7 NAD+-binding site was measured in vitro using a Mesoscale Discovery electrochemiluminescent assay. […] Next, 10 μl of 10 nM PARP7 protein incubated for 1 hour at room temperature with a dose response curve of each test compound in a Greiner LDV polypropylene plate (#781201) is added to the MSD plate containing the immobilized probe. The interaction is allowed to reach equilibrium for 1.5 hours, and then 10 ul of SULFO-TAG labeled anti-GST antibody (Cat #R32AA-1) is added to each well and allowed to incubate for an additional 1.5 hours at room temperature. Finally, 10 μl of MSD read buffer T (4×, Cat. #R92C-1) is added to each well using a Bravo liquid handler to prevent air bubbles in the wells, and the plates are subsequently read in an MSD instrument. Light intensity is then measured to quantify the amount of PARP7 bound to the immobilized probe on the plate.

For the molecule `O=C(CC[C@@H]1CCCCN1c1cc(C(F)(F)F)c(=O)[nH]n1)N1CCN(c2ncc(C(F)(F)F)cn2)CC1` [Example 31, (S)-6-(2-(3-oxo-3-(4-(5-(trifluoromethyl)pyrimidin-2-yl)piperazin-1-yl)propyl)piperidin-1-yl)-4-(trifluoromethyl)pyridazin-3(2H)-one], in assay [1], the 50% effective concentration (EC50) came to 172 nM. At PARP7, this molecule yielded an IC50 of 0.671 nM.

On to `CN(CCCC(=O)N1CCN(c2ncc(C(F)(F)F)cn2)CC1)c1cc(C(F)(F)F)c(=O)[nH]n1` [Example 32, 6-(methyl(4-oxo-4-(4-(5-(trifluoromethyl)pyrimidin-2-yl)piperazin-1-yl)butyl)amino)-4-(trifluoromethyl)pyridazin-3(2H)-one], for which the EC50 in assay [1] came out at 75.6 nM. The same molecule displayed an IC50 on PARP7 of 0.233 nM.

Regarding `O=C(CC[C@H]1CCCCN1c1cc(C(F)(F)F)c(=O)[nH]n1)N1CCN(c2ncc(C(F)(F)F)cn2)CC1` [Example 33, (R)-6-(2-(3-oxo-3-(4-(5-(trifluoromethyl)pyrimidin-2-yl)piperazin-1-yl)propyl)piperidin-1-yl)-4-(trifluoromethyl)pyridazin-3(2H)-one], in assay [1], the EC50 was 1220 nM. At PARP7, this molecule came in with an IC50 of 2.92 nM.

Regarding `O=C(C[C@H]1CCCCN1c1cc(C(F)(F)F)c(=O)[nH]n1)N1CCN(c2ncc(C(F)(F)F)cn2)CC1` [Example 34, (R)-6-(2-(2-oxo-2-(4-(5-(trifluoromethyl)pyrimidin-2-yl)piperazin-1-yl)ethyl)piperidin-1-yl)-4-(trifluoromethyl)pyridazin-3(2H)-one], the EC50 in assay [1] was found to be 1690 nM. Besides, it took 4.46 nM to reach half-maximal inhibition at PARP7 (IC50).

For the molecule `CCN(CCCC(=O)N1CCN(c2ncc(C(F)(F)F)cn2)CC1)c1cc(C(F)(F)F)c(=O)[nH]n1` [Example 36, 6-(ethyl(4-oxo-4-(4-(5-(trifluoromethyl)pyrimidin-2-yl)piperazin-1-yl)butyl)amino)-4-(trifluoromethyl)pyridazin-3(2H)-one], the EC50 in assay [1] came out at 51.6 nM. At PARP7, half-maximal inhibition (IC50) was put at 0.179 nM.

Take `CCCN(CCCC(=O)N1CCN(c2ncc(C(F)(F)F)cn2)CC1)c1cc(C(F)(F)F)c(=O)[nH]n1` [Example 37, 6-((4-oxo-4-(4-(5-(trifluoromethyl)pyrimidin-2-yl)piperazin-1-yl)butyl)(propyl)amino)-4-(trifluoromethyl)pyridazin-3(2H)-one]: in assay [1], the EC50 is 134 nM. The molecule also displayed an IC50 at PARP7 of 0.28 nM.

With `O=C(N1CCN(c2ncc(C(F)(F)F)cn2)CC1)N1CCC[C@@H](Nc2cc(C(F)(F)F)c(=O)[nH]n2)C1` [Example 38, (R)-4-(trifluoromethyl)-6-((1-(4-(5-(trifluoromethyl)pyrimidin-2-yl)piperazine-1-carbonyl)piperidin-3-yl)amino)pyridazin-3(2H)-one], the EC50 in assay [1] worked out at 1870 nM. The IC50 on PARP7 is 2.71 nM.

Take `O=C(N1CCN(c2ncc(C(F)(F)F)cn2)CC1)N1CCC[C@H](Nc2cc(C(F)(F)F)c(=O)[nH]n2)C1` [Example 39, (S)-4-(trifluoromethyl)-6-((1-(4-(5-(trifluoromethyl)pyrimidin-2-yl)piperazine-1-carbonyl)piperidin-3-yl)amino)pyridazin-3(2H)-one]: the EC50 in assay [1] is 1030 nM. At PARP7, this molecule gave an IC50 of 0.719 nM.

For the molecule `O=C(CC[C@@H](Nc1cc(C(F)(F)F)c(=O)[nH]n1)C(F)F)N1CCN(c2ncc(C(F)(F)F)cn2)CC1` [Example 40, (R)-6-((1,1-difluoro-5-oxo-5-(4-(5-(trifluoromethyl)pyrimidin-2-yl)piperazin-1-yl)pentan-2-yl)amino)-4-(trifluoromethyl)pyridazin-3(2H)-one], the EC50 in assay [1] stood at 63 nM. Further, on PARP7, the midpoint of inhibition, the IC50, lay at 0.275 nM.

Take `O=C(CC[C@@H]1COCCN1c1cc(C(F)(F)F)c(=O)[nH]n1)N1CCN(c2ncc(C(F)(F)F)cn2)CC1` [Example 42, (R)-6-(3-(3-oxo-3-(4-(5-(trifluoromethyl)pyrimidin-2-yl)piperazin-1-yl)propyl)morpholino)-4-(trifluoromethyl)pyridazin-3(2H)-one]: in assay [1], the EC50 stood at 901 nM. On PARP7, inhibition was half-maximal at 0.598 nM (IC50).

With `O=C([C@@H]1CN(c2cc(C(F)(F)F)c(=O)[nH]n2)CCO1)N1CCN(c2ncc(C(F)(F)F)cn2)CC1` [Example 43, (S)-4-(trifluoromethyl)-6-(2-(4-(5-(trifluoromethyl)pyrimidin-2-yl)piperazine-1-carbonyl)morpholino)pyridazin-3(2H)-one], in assay [1], the EC50 was at least 10000 nM. For the same molecule, the IC50 on PARP7 came out at 20.1 nM.

Turning to `O=C(CCCN(c1ccccc1)c1cc(C(F)(F)F)c(=O)[nH]n1)N1CCN(c2ncc(C(F)(F)F)cn2)CC1` [Example 44, 6-((4-oxo-4-(4-(5-(trifluoromethyl)pyrimidin-2-yl)piperazin-1-yl)butyl)(phenyl)amino)-4-(trifluoromethyl)pyridazin-3(2H)-one], in assay [1], the EC50 is 74.1 nM. This molecule also displayed an IC50 at PARP7 of 0.151 nM.

On to `O=C(CCC1Cc2ccccc2N1c1cc(C(F)(F)F)c(=O)[nH]n1)N1CCN(c2ncc(C(F)(F)F)cn2)CC1` (stereo not drawn) [Example 47, 3-[2-[3-oxo-3-[4-[5-(trifluoromethyl)pyrimidin-2-yl]piperazin-1-yl]propyl]indolin-1-yl]-5-(trifluoromethyl)-1H-pyridazin-6-one], for which the EC50 in assay [1] worked out at 179 nM. The molecule further returned an IC50 at PARP7 of 0.232 nM.

`O=C([C@@H]1Cc2ccccc2N1c1cc(C(F)(F)F)c(=O)[nH]n1)N1CCN(c2ncc(C(F)(F)F)cn2)CC1` [Example 49, 5-(trifluoromethyl)-3-[(2S)-2-[4-[5-(trifluoromethyl)pyrimidin-2-yl]piperazine-1-carbonyl]indolin-1-yl]-1H-pyridazin-6-one]: in assay [1], the EC50 stood at 858 nM. This molecule also yielded an IC50 at PARP7 of 1.1 nM.

Regarding `O=C(CC[C@@H]1Cc2ccccc2N1c1cc(C(F)(F)F)c(=O)[nH]n1)N1CCN(c2ncc(C(F)(F)F)cn2)CC1` [Example 50, 3-[(2R)-2-[3-oxo-3-[4-[5-(trifluoromethyl)pyrimidin-2-yl]piperazin-1-yl]propyl]indolin-1-yl]-5-(trifluoromethyl)-1H-pyridazin-6-one], the EC50 in assay [1] amounted to 221 nM. This molecule also displayed a 50% inhibitory concentration (IC50) on PARP7 of 0.357 nM.

Turning to `[2H]C1([2H])N(C(=O)CCCNc2cc(C(F)(F)F)c(=O)[nH]n2)C([2H])([2H])C([2H])([2H])N(c2ncc(C(F)(F)F)cn2)C1([2H])[2H]` [Example 51, 3-[[4-[2,2,3,3,5,5,6,6-octadeuterio-4-[5-(trifluoromethyl)pyrimidin-2-yl]piperazin-1-yl]-4-oxo-butyl]amino]-5-(trifluoromethyl)-1H-pyridazin-6-one], the EC50 in assay [1] was 123 nM. The molecule also displayed an IC50 at PARP7 of 0.165 nM.

For the molecule `[2H]C1([2H])N(C(=O)CCCCc2cc(C(F)(F)F)c(=O)[nH]n2)C([2H])([2H])C([2H])([2H])N(c2ncc(C(F)(F)F)cn2)C1([2H])[2H]` [Example 52, 3-[5-[2,2,3,3,5,5,6,6-octadeuterio-4-[5-(trifluoromethyl)pyrimidin-2-yl]piperazin-1-yl]-5-oxo-pentyl]-5-(trifluoromethyl)-1H-pyridazin-6-one], the EC50 in assay [1] was 209 nM. Besides, at PARP7, the IC50 was determined as 0.359 nM.

For the molecule `O=C(CCCNc1cc(C(F)(F)F)c(=O)[nH]n1)N1CCN(c2ccc(C(F)(F)F)cn2)CC1` [Example 53, 3-[[4-oxo-4-[4-[5-(trifluoromethyl)-2-pyridyl]piperazin-1-yl]butyl]amino]-5-(trifluoromethyl)-1H-pyridazin-6-one], in assay [1], the EC50 is 218 nM. For the same molecule, 0.34 nM corresponded to half-maximal inhibition at PARP7 (IC50).
